According to patent publication US20240381872A1, “SUBSTITUTED 2,3-DIHYDRO[1,3]THIAZOLO[4,5-B]PYRIDINES, SALTS THEREOF AND THEIR USE AS HERBICIDALLY ACTIVE SUBSTANCES” (BAYER AKTIENGESELLSCHAFT, priority 2021, published 2024):

How the values were obtained:
Assay type in all cases: in vivo
[1] = system: Echinochloa crus-galli (ECHCG); assay: Herbicidal pre-emergence action, section A (Table A3); settings: visual grading after ca. 3 weeks vs untreated controls
Text: (§1) Seeds of mono- and dicotyledonous weed plants were sown in plastic pots (double sowings with one species of mono- and one species of dicotyledonous weed plants per pot), in sandy loam, and covered with soil. The compounds according to the invention, formulated in the form of wettable powders (WP) or as emulsifiable concentrates (EC), were applied to the surface of the covering soil as aqueous suspension or emulsion, with the addition of 0.5% of an additive, at an application rate of 600 l of water per hectare (converted). Following treatment, the pots were placed in a greenhouse and kept under optimum growth conditions for the test plants. The visual grading of the damage to the test plants was carried out after ca. 3 weeks in comparison to untreated controls (herbicidal effect in percent (%): 100% effect=plants have died off, 0% effect=as control plants).

Lolium rigidum (LOLRI) = assay: Herbicidal pre-emergence action, section A (Table A5); settings: application rate 1280 g/ha, visual grading after ca. 3 weeks vs untreated controls
Text: as §1

Kochia scoparia (KCHSC) [2] = assay: Herbicidal pre-emergence action, section A (Table A4); settings: visual grading after ca. 3 weeks vs untreated controls
Text: as §1

[3] = system: Amaranthus retroflexus (AMARE); assay: Herbicidal post-emergence action, section B (Table B11); settings: visual rating about 3 weeks after treatment vs untreated controls
Method: (§2) Seeds of mono- and dicotyledonous weed plants were placed in plastic pots in sandy loam soil (doubly sown with in each case one species of mono- or dicotyledonous weed plants per pot), covered with soil and cultivated in a greenhouse under controlled growth conditions. 2 to 3 weeks after sowing, the test plants were treated at the one-leaf stage. The compounds of the invention, formulated in the form of wettable powders (WP) or as emulsion concentrates (EC), were applied onto the green parts of the plants as aqueous suspension or emulsion with addition of 0.5% additive at a water application rate of 600 liters per hectare (converted). After the test plants had been kept in the greenhouse under optimum growth conditions for about 3 weeks, the activity of the preparations was rated visually in comparison to untreated controls. For example, 100% activity=the plants have died, 0% activity=like control plants.

[4] = system: Amaranthus retroflexus (AMARE); assay: Herbicidal pre-emergence action, section A (Table A11); settings: application rate 320 g/ha
Text: as §1

Kochia scoparia (KCHSC) [5] = assay: Herbicidal post-emergence action, section B (Table B4); settings: visual rating about 3 weeks after treatment vs untreated controls
Method: as §2

[6] = system: Abutilon theophrasti (ABUTH); assay: Herbicidal post-emergence action, section B (Table B1); settings: application rate 1280 g/ha, rated visually after about 3 weeks
Method: as §2

Poa annua (POAAN) [7] = assay: Herbicidal pre-emergence action, section A (Table A7); settings: application rate 1280 g/ha, visual grading after ca. 3 weeks vs untreated controls
Text: as §1

[8] = system: Digitaria sanguinalis (DIGSA); assay: Herbicidal pre-emergence action, section A (Table A12); settings: application rate 1280 g/ha
Text: as §1

Stellaria media (STEME) [9] = assay: Herbicidal post-emergence action, section B (Table B9); settings: application rate 1280 g/ha, visual rating about 3 weeks after treatment vs untreated controls
Method: as §2

Setaria viridis (SETVI) = assay: Herbicidal pre-emergence action, section A (Table A8)
Text: as §1

Stellaria media (STEME) [10] = assay: Herbicidal pre-emergence action, section A (Table A9); settings: application rate 1280 g/ha
Text: as §1

[11] = system: Matricaria inodora (MATIN); assay: Herbicidal pre-emergence action, section A (Table A6); settings: application rate 1280 g/ha; visual grading after ca. 3 weeks vs untreated controls
Text: as §1

Veronica persica (VERPE) [12] = assay: Herbicidal post-emergence action, section B (Table B10); settings: Veronica persica, post-emergence, 504 h; application rate 1280 g/ha; visual rating about 3 weeks after treatment vs untreated controls; read-out: post-emergence activity against VERPE in %
Method: as §2

Veronica persica (VERPE) [13] = assay: Herbicidal pre-emergence action, section A (Table A10); settings: Veronica persica, 504 h, application rate 1280 g/ha, read-out: pre-emergence activity against VERPE in %
Text: as §1

Poa annua (POAAN) [14] = assay: Herbicidal post-emergence action, section B (Table B7); settings: Poa annua, post-emergence, 504 h; application rate 1280 g/ha; visual rating about 3 weeks after treatment vs untreated controls; read-out: post-emergence activity against POAAN in %
Method: as §2

[15] = system: Echinochloa crus-galli (ECHCG); assay: Herbicidal post-emergence action, section B (Table B3); settings: Echinochloa crus-galli, 504 h, application rate 1280 g/ha, rated visually after about 3 weeks, read-out: post-emergence activity against ECHCG in %
Method: as §2

Cc1cccc(F)c1-c1nc2c(cc1Br)SCN2 [Example I-032]
pre-emergence activity against ECHCG in % ([1]; application rate 320 g/ha): 100% | pre-emergence activity against LOLRI in % (Lolium rigidum (LOLRI)): 100% | pre-emergence activity against KCHSC in % (Kochia scoparia (KCHSC) [2]; application rate 1280 g/ha): 90% | post-emergence activity against AMARE in % ([3]; application rate 1280 g/ha): 90% | pre-emergence activity against AMARE in % [4]: 90% | post-emergence activity against KCHSC in % (Kochia scoparia (KCHSC) [5]; application rate 1280 g/ha): 90% | post-emergence activity against ABUTH in % [6]: 90% | pre-emergence activity against POAAN in % (Poa annua (POAAN) [7]): 100% | pre-emergence activity against DIGSA in % [8]: 100% | post-emergence activity against STEME in % (Stellaria media (STEME) [9]): 90% | pre-emergence activity against SETVI in % (Setaria viridis (SETVI); application rate 320 g/ha): 100% | pre-emergence activity against STEME in % (Stellaria media (STEME) [10]): 100% | pre-emergence activity against MATIN in % [11]: 90%

CCCC(=O)N1CSc2cc(Br)c(-c3ccccc3Cl)nc21 [Example I-042, 1-[6-bromo-5-(2-chlorophenyl)[1,3]thiazolo[4,5-b]pyridin-3(2H)-yl]butan-1-one]
pest or weed control at 1280 g/ha (Veronica persica (VERPE) [12]): 90% | pest or weed control at 1280 g/ha ([1]; Echinochloa crus-galli, pre-emergence, 504 h, application rate 1280 g/ha, read-out: pre-emergence activity against ECHCG in %): 100% | pest or weed control at 1280 g/ha (Lolium rigidum (LOLRI); Lolium rigidum, pre-emergence, 504 h, read-out: pre-emergence activity against LOLRI in %): 90% | pest or weed control at 320 g/ha (Kochia scoparia (KCHSC) [2]; Bassia scoparia, pre-emergence, 504 h, application rate 320 g/ha, read-out: pre-emergence activity against KCHSC in %): 90% | pest or weed control at 320 g/ha ([3]; Amaranthus retroflexus, post-emergence, 504 h, application rate 320 g/ha, read-out: post-emergence activity against AMARE in %): 90% | pest or weed control at 320 g/ha ([4]; Amaranthus retroflexus, 504 h, read-out: pre-emergence activity against AMARE in %): 90% | pest or weed control at 320 g/ha (Kochia scoparia (KCHSC) [5]; Bassia scoparia, post-emergence, 504 h, application rate 320 g/ha, read-out: post-emergence activity against KCHSC in %): 90% | pest or weed control at 1280 g/ha ([6]; Abutilon theophrasti, 504 h, read-out: post-emergence activity against ABUTH in %): 90% | pest or weed control at 1280 g/ha (Poa annua (POAAN) [7]; Poa annua, pre-emergence, 504 h, read-out: pre-emergence activity against POAAN in %): 100% | pest or weed control at 1280 g/ha (Veronica persica (VERPE) [13]): 90% | pest or weed control at 1280 g/ha ([8]; Digitaria sanguinalis, 504 h, read-out: pre-emergence activity against DIGSA in %): 100% | pest or weed control at 1280 g/ha (Stellaria media (STEME) [9]; Stellaria media, post-emergence, 504 h, read-out: post-emergence activity against STEME in %): 90% | pest or weed control at 1280 g/ha (Poa annua (POAAN) [14]): 90% | pest or weed control at 1280 g/ha (Setaria viridis (SETVI); Setaria viridis, 504 h, application rate 1280 g/ha, read-out: pre-emergence activity against SETVI in %): 100% | pest or weed control at 1280 g/ha (Stellaria media (STEME) [10]; Stellaria media, 504 h, read-out: pre-emergence activity against STEME in %): 90% | pest or weed control at 1280 g/ha [15]: 90%
